As a reminder, the Ki is the dissociation constant of the complex between target and ligand, obtained from inhibition or displacement.

In assay [1] the target is T1, VIP peptides (Homo sapiens, UniProt P01282).
T1 sequence (P01282 whole entry): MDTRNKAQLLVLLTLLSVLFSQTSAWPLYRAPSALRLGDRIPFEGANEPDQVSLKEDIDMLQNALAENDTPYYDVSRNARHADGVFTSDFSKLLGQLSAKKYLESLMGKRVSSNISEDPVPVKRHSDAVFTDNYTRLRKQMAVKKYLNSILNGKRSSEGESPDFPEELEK

In assay [2] the target is T2, VIP peptides (Rattus norvegicus, UniProt P01283).
T2 sequence (P01283 whole entry): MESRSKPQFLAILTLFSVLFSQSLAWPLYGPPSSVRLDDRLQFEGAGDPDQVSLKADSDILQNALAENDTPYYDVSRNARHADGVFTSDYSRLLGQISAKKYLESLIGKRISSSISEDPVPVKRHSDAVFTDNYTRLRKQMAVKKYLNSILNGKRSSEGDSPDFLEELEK

Several values for one entry are separate records, joined by “and”; a condition that tells them apart may be missing. Equal values may be shown once. Non-standard residues stand in square brackets, D forms with d. Residues, ends and D or L forms follow the SMILES beside them. ξ: configuration not given here. Ile(3ξ) = CCC(C)[C@H](N)C(=O)O

In turn, `CC[C@H](C)[C@H](NC(=O)[C@H](CO)NC(=O)[C@H](CC(N)=O)NC(=O)[C@H](CC(C)C)NC(=O)[C@H](Cc1ccc(O)cc1)NC(=O)[C@H](CCCCN)NC(=O)[C@H](CCCCN)NC(=O)[C@@H](NC(=O)[C@H](C)NC(=O)[C@H](CCSC)NC(=O)[C@H](CCC(N)=O)NC(=O)[C@H](CCCCN)NC(=O)[C@H](CCCN=C(N)N)NC(=O)[C@H](CC(C)C)NC(=O)[C@H](CCCN=C(N)N)NC(=O)[C@@H](NC(=O)[C@H](Cc1ccc(O)cc1)NC(=O)[C@H](CC(N)=O)NC(=O)[C@H](CC(=O)O)NC(=O)[C@@H](NC(=O)[C@H](Cc1ccccc1)NC(=O)[C@@H](NC(=O)[C@H](C)NC(=O)[C@H](CC(=O)O)NC(=O)[C@H](CO)NC(=O)[C@@H](N)Cc1cnc[nH]1)C(C)C)[C@@H](C)O)[C@@H](C)O)C(C)C)C(=O)N[C@@H](CC(C)C)C(=O)N[C@@H](CC(N)=O)C(=O)O` [CAS_37221-79-7] gave a Ki at VIP peptides [1] of 0.15 µM. This counts as sub-micromolar.

As for `CC[C@H](C)[C@H](NC(=O)CNC(=O)[C@H](CCC(=O)O)NC(=O)[C@H](CO)NC(=O)[C@@H](N)Cc1cnc[nH]1)C(=O)N[C@@H](Cc1ccccc1)C(=O)N[C@H](C(=O)N[C@@H](CC(=O)O)C(=O)N[C@@H](CO)C(=O)N[C@@H](Cc1ccc(O)cc1)C(=O)N[C@@H](CO)C(=O)N[C@@H](CCCNC(=N)N)C(=O)N[C@@H](Cc1ccc(O)cc1)C(=O)N[C@@H](CCCNC(=N)N)C(=O)N[C@@H](CCCCN)C(=O)N[C@@H](CCC(N)=O)C(=O)N[C@@H](CCSC)C(=O)N[C@@H](C)C(=O)N[C@H](C(=O)N[C@@H](CCCCN)C(=O)N[C@@H](CCCCN)C(=O)N[C@@H](Cc1ccc(O)cc1)C(=O)N[C@@H](CC(C)C)C(=O)N[C@@H](C)C(=O)N[C@@H](C)C(=O)N[C@H](C(=O)N[C@@H](CC(C)C)C(N)=O)C(C)C)C(C)C)[C@@H](C)O` [PACAP(1-27)], the Ki on VIP peptides [1] is 0.0003 µM; at VIP peptides [2], 0.0015 µM and 0.0005 µM and 0.001 µM.

Regarding `[C][C][C]([C])[C@H]([N]C(=O)[C][N]C(=O)[C@H]([C][C]C([O])=O)[N]C(=O)[C@@H]([N])[C][O])C(=O)[N][C@@H]([C]c1ccccc1)C(=O)[N][C@H](C(=O)[N][C@@H]([C]C([O])=O)C(=O)[N][C@@H]([C][O])C(=O)[N][C@@H]([C]c1ccc([O])cc1)C(=O)[N][C@@H]([C][O])C(=O)[N][C@@H]([C][C][C]N=C([N])[N])C(=O)[N][C@@H]([C]c1ccc([O])cc1)C(=O)[N][C@@H]([C][C][C]N=C([N])[N])C(=O)[N][C@@H]([C][C][C][C][N])C(=O)[N][C@@H]([C][C]C([N])=O)C(=O)[N][C@@H]([C][C]S[C])C(=O)[N][C@@H]([C])C(=O)[N][C@@H]([C]([C])[C])C(=O)[N][C@@H]([C][C][C][C][N])C(=O)[N][C@@H]([C][C][C][C][N])C(=O)[N][C@@H]([C]c1ccc([O])cc1)C(=O)[N][C@@H]([C][C]([C])[C])C(=O)[N][C@@H]([C])C(=O)[N][C@@H]([C])C(=O)[N][C@@H]([C]([C])[C])C(=O)[N][C@@H]([C][C]([C])[C])C([N])=O)[C@@H]([C])[O]` [PACAP(2-27)], the Ki at VIP peptides [1] is 0.02 µM; at VIP peptides [2] it was 0.4 µM and 0.04 µM.

Regarding `CCC(C)[C@H](NC(=O)CNC(=O)[C@H](CC(=O)O)NC(=O)[C@@H](N)CO)C(=O)N[C@@H](Cc1ccccc1)C(=O)N[C@H](C(=O)N[C@@H](CC(=O)O)C(=O)N[C@@H](CO)C(=O)N[C@@H](Cc1ccc(O)cc1)C(=O)N[C@@H](CO)C(=O)N[C@@H](CCCN=C(N)N)C(=O)N[C@@H](Cc1ccc(O)cc1)C(=O)N[C@@H](CCCN=C(N)N)C(=O)N[C@@H](CCCCN)C(=O)N[C@@H](CCC(N)=O)C(=O)N[C@@H](CCSC)C(=O)N[C@@H](C)C(=O)N[C@H](C(=O)N[C@@H](CCCCN)C(=O)N[C@@H](CCCCN)C(=O)N[C@@H](Cc1ccc(O)cc1)C(=O)N[C@@H](CC(C)C)C(=O)N[C@@H](C)C(=O)N[C@@H](C)C(=O)N[C@H](C(=O)N[C@@H](CC(C)C)C(=O)NCC(=O)N[C@@H](CCCCN)C(=O)N[C@@H](CCCN=C(N)N)C(=O)N[C@@H](Cc1ccc(O)cc1)C(=O)N[C@@H](CCCCN)C(=O)N[C@@H](CCC(N)=O)C(=O)N[C@@H](CCCN=C(N)N)C(=O)N[C@H](C(=O)N[C@@H](CCCCN)C(=O)N[C@@H](CC(N)=O)C(=O)N[C@@H](CCCCN)C(N)=O)C(C)C)C(C)C)C(C)C)[C@@H](C)O` (stereo partly drawn) [PACAP(2-38)] (H-SDG[Ile(3ξ)]FTDSYSRYRKQMAVKKYLAAVLGKRYKQRVKNK-NH2), the Ki on VIP peptides [1] was 0.002 µM; at VIP peptides [2], 0.01 µM and 0.004 µM and 0.03 µM.

As for `CC[C@H](C)[C@H](NC(=O)CNC(=O)[C@H](CC(=O)O)NC(=O)[C@H](CO)NC(=O)[C@@H](N)Cc1cnc[nH]1)C(=O)N[C@@H](Cc1ccccc1)C(=O)N[C@H](C(=O)N[C@@H](CC(=O)O)C(=O)N[C@@H](CO)C(=O)N[C@@H](Cc1ccc(O)cc1)C(=O)N[C@@H](CO)C(=O)N[C@@H](CCCNC(=N)N)C(=O)N[C@@H](Cc1ccc(O)cc1)C(=O)N[C@@H](CCCNC(=N)N)C(=O)N[C@@H](CCCCN)C(=O)N[C@@H](CCC(N)=O)C(=O)N[C@@H](CCSC)C(=O)N[C@@H](C)C(=O)N[C@H](C(=O)N[C@@H](CCCCN)C(=O)N[C@@H](CCCCN)C(=O)N[C@@H](Cc1ccc(O)cc1)C(=O)N[C@@H](CC(C)C)C(=O)N[C@@H](C)C(=O)N[C@@H](C)C(=O)N[C@H](C(=O)N[C@@H](CC(C)C)C(=O)NCC(=O)N[C@@H](CCCCN)C(=O)N[C@@H](CCCNC(=N)N)C(=O)N[C@@H](Cc1ccc(O)cc1)C(=O)N[C@@H](CCCCN)C(=O)N[C@@H](CCC(N)=O)C(=O)N[C@@H](CCCNC(=N)N)C(=O)N[C@H](C(=O)N[C@@H](CCCCN)C(=O)N[C@@H](CC(N)=O)C(=O)N[C@@H](CCCCN)C(N)=O)C(C)C)C(C)C)C(C)C)[C@@H](C)O` [PACAP], the Ki at VIP peptides [2] is 0.0009 µM and 0.0003 µM.

At VIP peptides [1], “H-HSDAVFTDNYTRLRKQMAVKKYLAAVL-NH2 [VIP-PACAP]” yielded a Ki of 0.1 µM.

Compound “H-HSDAVFTDNYTRYRKQMAVKKYLNSILN-OH [[Tyr13]VIP]” displayed a Ki at VIP peptides [1] of 0.04 µM. Compared with the last compound, the Ki is about 2.5-fold lower.

At VIP peptides [1], “H-HSDAVFTDSYTRLRKQMAVKKYLNSILN-NH2 [[Ser9]VIP]” registered a Ki of 0.05 µM.

In turn, “H-HSDAVFTDSYTRYRKQMAVKKYLNSILN-NH2 [[Ser9,Tyr13]VIP]” showed a Ki on VIP peptides [1] of 0.015 µM.

In the case of “H-HSDGIFTDSYTRLRKQMAVKKYLNSILN-OH [PACAP-VIP]”, the affinity on VIP peptides [1] corresponds to a Ki of 0.008 µM.

The record behind these values is BindingDB's records for doi:10.1111/j.1432-1033.1991.tb15734.x (Universit&Eacute, 1991).
